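Five compound concentrations were applied to cells in 96-well plates for 48 hours; endpoints were derived by simple linear interpolation of the resulting dose-response curve. GI50 marks 50% less growth.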 Activity calls are given as the source filed them. Rule as the data show it: active = GI50 up to about 1.1 µM and inactive = higher.
Columns and labels:
Assay in all cases: NCI-60 cell line screen, 48 h
ACHN = test system: ACHN
TK-10 = test system: TK-10
SK-MEL-2 = test system: SK-MEL-2
HCT-116 = test system: HCT-116
RPMI-8226 = test system: RPMI-8226
CAKI-1 = test system: CAKI-1
DMS-273 = test system: DMS-273
KM12 = test system: KM12
OVCAR-4 = test system: OVCAR-4
SW-620 = test system: SW-620
UO-31 = test system: UO-31
CCRF-CEM = test system: CCRF-CEM
U-251 = test system: U-251
786-0 = test system: 786-0
OVCAR-5 = test system: OVCAR-5
NCI-H460 = test system: NCI-H460
HOP-62 = test system: HOP-62

Measured: GI50

O=c1c2ccccc2c(=O)n2n1CC=CC2
inactive: ACHN > 100 µM | TK-10 > 100 µM | SK-MEL-2 > 100 µM | HCT-116 > 100 µM | RPMI-8226 > 100 µM | CAKI-1 > 100 µM | DMS-273 > 100 µM | KM12 > 100 µM | OVCAR-4 > 100 µM | SW-620 > 100 µM | UO-31 > 100 µM | CCRF-CEM > 100 µM | U-251 > 100 µM | 786-0 > 100 µM | OVCAR-5 > 100 µM

Clc1cccc(C2SCc3nc4ccccc4n32)c1Cl (stereo unspecified)
inactive: ACHN 20.8 µM | TK-10 15.6 µM | SK-MEL-2 16.7 µM | HCT-116 18.6 µM | RPMI-8226 13.3 µM | CAKI-1 16.3 µM | DMS-273 15.9 µM | OVCAR-4 13.9 µM | SW-620 17.1 µM | UO-31 13 µM | CCRF-CEM 19.1 µM | U-251 17.5 µM | 786-0 17.7 µM | NCI-H460 18.5 µM | OVCAR-5 13.9 µM | HOP-62 17.4 µM

O=CC1=CCCN(CCc2c[nH]c3ccccc23)C1
inactive: ACHN 70.6 µM | TK-10 76.6 µM | SK-MEL-2 63.5 µM | HCT-116 28.2 µM | RPMI-8226 37.2 µM | CAKI-1 75.5 µM | DMS-273 46.2 µM | KM12 56.9 µM | SW-620 17.6 µM | CCRF-CEM 23.4 µM | U-251 52.5 µM | 786-0 62.2 µM | NCI-H460 54.6 µM | OVCAR-5 71.3 µM | HOP-62 52.6 µM

COc1c(-c2ccccc2)nc2ccc(Oc3ccccc3)nn12
inactive: ACHN > 58.7 µM | TK-10 > 100 µM | SK-MEL-2 > 54 µM | HCT-116 13.2 µM | RPMI-8226 7.6 µM | CAKI-1 > 68.4 µM | DMS-273 > 57.1 µM | KM12 > 54.2 µM | OVCAR-4 > 36.3 µM | SW-620 > 75.7 µM | UO-31 > 61.8 µM | CCRF-CEM 8.65 µM | U-251 > 80.5 µM | 786-0 > 61.5 µM | NCI-H460 36.6 µM | OVCAR-5 > 77.3 µM | HOP-62 > 100 µM

CC(C)(C)CC(C)(C)c1cc2c(O)c(c1)Cc1cc(C(C)(C)CC(C)(C)C)cc(c1O)Cc1cc(C(C)(C)CC(C)(C)C)cc(c1O)Cc1cc(C(C)(C)CC(C)(C)C)cc(c1O)C2
inactive: ACHN > 100 µM | TK-10 > 100 µM | SK-MEL-2 > 100 µM | HCT-116 > 100 µM | RPMI-8226 > 100 µM | DMS-273 > 100 µM | KM12 > 100 µM | OVCAR-4 > 100 µM | SW-620 > 100 µM | UO-31 > 100 µM | CCRF-CEM > 100 µM | U-251 > 100 µM | 786-0 > 100 µM | NCI-H460 > 100 µM | OVCAR-5 > 100 µM | HOP-62 > 100 µM

N=C1N(c2ccccc2)C(=O)C23CCCC2C13N1CCOCC1 (stereo unspecified)
inactive: ACHN > 100 µM | SK-MEL-2 > 100 µM | HCT-116 > 100 µM | RPMI-8226 > 100 µM | CAKI-1 > 100 µM | DMS-273 > 100 µM | KM12 > 100 µM | OVCAR-4 > 100 µM | SW-620 > 100 µM | UO-31 > 100 µM | CCRF-CEM > 100 µM | U-251 > 100 µM | 786-0 > 100 µM | NCI-H460 > 100 µM | OVCAR-5 > 100 µM | HOP-62 > 100 µM

C/C=C/COC(=O)CO[N+](=O)[O-]
inactive: ACHN > 100 µM | TK-10 > 100 µM | SK-MEL-2 > 100 µM | HCT-116 > 100 µM | RPMI-8226 > 100 µM | CAKI-1 > 100 µM | DMS-273 > 100 µM | KM12 > 100 µM | OVCAR-4 > 100 µM | SW-620 > 100 µM | UO-31 > 100 µM | CCRF-CEM > 100 µM | U-251 > 100 µM | 786-0 > 100 µM | NCI-H460 > 100 µM | OVCAR-5 > 100 µM | HOP-62 > 100 µM

COC1(OC)CC2OC1C1N=NN(C(=O)OC(C)(C)C)C21 (stereo unspecified)
inactive: ACHN > 100 µM | SK-MEL-2 > 100 µM | RPMI-8226 52.7 µM | CAKI-1 > 100 µM | DMS-273 > 100 µM | KM12 > 100 µM | OVCAR-4 > 100 µM | SW-620 57.5 µM | UO-31 > 100 µM | CCRF-CEM 21.1 µM | U-251 > 100 µM | 786-0 > 100 µM | NCI-H460 > 100 µM | OVCAR-5 > 100 µM | HOP-62 > 100 µM

CCCCCCC(C)CCCCCCCCCCC(=O)O (stereo unspecified)
inactive: ACHN > 100 µM | TK-10 > 100 µM | SK-MEL-2 > 100 µM | HCT-116 93.5 µM | RPMI-8226 > 100 µM | CAKI-1 > 100 µM | DMS-273 > 100 µM | KM12 64.7 µM | OVCAR-4 > 100 µM | SW-620 > 100 µM | UO-31 > 100 µM | CCRF-CEM > 100 µM | U-251 > 100 µM | 786-0 > 100 µM | NCI-H460 > 100 µM | OVCAR-5 > 100 µM | HOP-62 > 100 µM

Clc1ccc(C2N3CCCCC3[C@@H]3c4[nH]c5ccccc5c4CCN23)cc1 (stereo partly specified)
inactive: ACHN 39.2 µM | TK-10 > 100 µM | SK-MEL-2 34 µM | HCT-116 30.2 µM | RPMI-8226 90.2 µM | CAKI-1 > 100 µM | DMS-273 42.2 µM | OVCAR-4 56.1 µM | SW-620 44.9 µM | UO-31 49.7 µM | CCRF-CEM 24.9 µM | U-251 57.9 µM | 786-0 > 100 µM | NCI-H460 61.8 µM | OVCAR-5 56.8 µM | HOP-62 > 100 µM

Cc1ccccc1NC(=O)CC1C(=O)Nc2ccccc2[S+]1[O-] (stereo unspecified)
inactive: ACHN 95.3 µM | TK-10 > 100 µM | SK-MEL-2 > 100 µM | HCT-116 > 100 µM | RPMI-8226 > 100 µM | CAKI-1 > 100 µM | DMS-273 > 100 µM | OVCAR-4 71.6 µM | SW-620 > 100 µM | UO-31 > 100 µM | CCRF-CEM > 100 µM | U-251 51.1 µM | 786-0 49.7 µM | NCI-H460 > 100 µM | OVCAR-5 > 100 µM

COc1cc(/C=C/c2cccnc2)cc(OC)c1OC
inactive: ACHN > 100 µM | TK-10 58.6 µM | HCT-116 > 100 µM | RPMI-8226 > 100 µM | CAKI-1 > 100 µM | DMS-273 > 100 µM | KM12 > 100 µM | OVCAR-4 > 100 µM | SW-620 > 100 µM | UO-31 36.5 µM | CCRF-CEM > 100 µM | U-251 > 100 µM | 786-0 > 100 µM | NCI-H460 > 100 µM | OVCAR-5 58.9 µM | HOP-62 70.6 µM

— ChEMBL document CHEMBL1201862, “PubChem BioAssay data set” (2004)
